According to publication PMC11489226 (Archives of Toxicology, 2024):
Several values for one entry are separate records, joined by “and”; a condition that tells them apart may be missing. Identical values can stand only once.

How the values were obtained:
CYP2E1 = CYP2E1 (Homo sapiens, UniProt P05181); test: Metabolism in transgenic HEK293 cells expressing CYP2E1; conditions: 20 µM parent PCB, 24 h, supernatant
Description: (§1) For the generation of transgenic cell lines, we used semi-adherent HEK293 cells (DSMZ, ACC305, human embryonic kidney cells) which were cultured on a daily basis in DMEM medium supplemented with 10% (FCS) and 1% penicillin/streptomycin. In a first step CYP1A2, CYP2C8, CYP2C9, CYP3A4, CYP2A6, and CYP2E1 cDNA were cloned into the plasmid pcDNATM3.1/V5-His TOPO® using human liver RNA as a template and using the following primers: CYP1A2 for5′-[…]-3′, CYP1A2 rev 5′-[…]-3′; CYP2C8 for 5′-[…]-3′, CYP2C8 rev 5′-[…]-3′; CYP2C9 for 5′-[…]-3′, CYP2C9 rev 5′-[…]-3′; CYP3A4 for 5′-[…]-3′, CYP3A4 rev 5′-[…]-3′, CYP2A6 for 5′-[…]-3′, CYP2A6 rev 5′-[…]-3′; CYP2E1 for 5′-[…]-3′, CYP2E1 rev 5′-[…]-3′. Final constructs were verified with Sanger DNA sequencing and restriction digestion. For transfection, 3 × 10^6 HEK293 cells were pre-incubated in a 10 cm dish in DMEM medium with 10% FCS, but without antibiotics, for 18 to 24 h. When the cells reached approximately 70% confluency, they were transfected using TransIT-LT1 transfection reagent (Biozol, Eiching, Germany). The TransIT-LT1 reagent was warmed to room temperature and vortexed. 1.63 mL Opti-MEM, 16.25 µL plasmid DNA (1 µg/µL), and 48.75 µL TransIT-LT1 reagent were mixed and incubated for 15 to 30 min. The mixture was then added dropwise to the medium of the cells, and the cells were incubated again at 37 °C and 5% CO2. After 24 h, the medium was replaced with standard medium and geneticin was added for selection (1 mg/mL). Cells were selected for 6–8 weeks in bulk culture, and single cell clones were obtained subsequently by limiting dilution. Each clone was checked for insertion by PCR using genomic DNA as a template.
(§2) Parallel samples were run without the addition of PCBs. At a confluence of 80%, PCBs (20 μM each, dissolved in ethanol) were added and cells were incubated for 24 h before harvest of supernatants. Supernatants were diluted 1:2 with 80 μL acetate buffer 0.1 M (pH = 5.3). 100 μL of this dilution were further incubated with 100 μL of ammonium acetate buffer 0.1 M (pH = 5.3) and 5 μL of β-Glucuronidase/Arylsulfatase enzyme overnight in a drying oven at 37 °C for enzymatic hydrolysis to release conjugated compounds. 50 μL of a mix of internal standards (10 ng/mL) and 600 μL of methanol were added to the samples, then mixed by vortexing for 1 min and centrifuged for 10 min at 3400g. The individual supernatants were transferred to glass LC vials and evaporated to approximately 50 μL at 45 °C under a gentle stream of nitrogen. Finally, 0.1 mol/ L ammonium acetate buffer was added to a final volume of 100 μL and then transferred to an insert for analysis.
(§3) HEK293 cells overexpressing the respective CYP enzymes were seeded onto 6-well plates and were treated with or without 10 µM of the respective probe drug in DMEM medium for 24 hours at 37 °C and 5 % CO2. After incubation 200 µL DMEM were collected, cells were washed with PBS and adherent cells were lysed in 500 µL methanol for 20 minutes. Analytes were measured by LC-MS/MS either in methanol cell lysates or in DMEM supernatant.
(§4) 50 µL of DMEM samples were protein precipitated by adding 200 µL of methanol and were centrifuged for 20 min, 17,000 g and 4°C. Supernatants were diluted in water or 40 % methanol according to dilution factor. Methanol cell lysates were diluted ½ with water and centrifuged for 20 min, 17,000 g and 4°C. 5 µL of the processed samples were injected for LC-MS analysis.

CYP2A6 = molecular target: T1, CYP2A6 (Homo sapiens, UniProt P11509); test: Metabolism in transgenic HEK293 cells expressing CYP2A6; format: in vitro ADME; set-up: V5-His (vector-encoded) (C); expressed in transfected cells; conditions: 24 h; for Quantification of metabolites generated from PCB28, 52, and 101 / Metabolite concentration formed, range across cell clones: 20 µM parent PCB; for Quantification of metabolites generated from PCB28, 52, and 101: supernatant; for Metabolite concentration formed, range across cell clones: HEK293CYP2A6 cell lines
T1 sequence (P11509 1-494): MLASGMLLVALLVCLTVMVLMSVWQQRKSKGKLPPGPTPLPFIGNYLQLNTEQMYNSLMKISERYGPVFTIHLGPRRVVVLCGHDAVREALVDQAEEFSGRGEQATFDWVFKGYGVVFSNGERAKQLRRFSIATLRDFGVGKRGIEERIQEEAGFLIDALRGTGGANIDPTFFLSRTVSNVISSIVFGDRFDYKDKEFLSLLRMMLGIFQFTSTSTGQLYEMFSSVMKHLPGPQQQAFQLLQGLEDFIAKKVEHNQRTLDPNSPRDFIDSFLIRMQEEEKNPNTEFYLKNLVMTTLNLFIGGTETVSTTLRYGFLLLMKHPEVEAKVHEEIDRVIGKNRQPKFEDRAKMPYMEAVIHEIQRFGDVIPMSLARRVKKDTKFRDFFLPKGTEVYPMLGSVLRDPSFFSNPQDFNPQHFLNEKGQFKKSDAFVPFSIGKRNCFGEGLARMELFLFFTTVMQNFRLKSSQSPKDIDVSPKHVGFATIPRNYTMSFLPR
Description: as §1, §2, §3, §4

CYP3A4 = CYP3A4 (Homo sapiens, UniProt P08684); test: Metabolism in transgenic HEK293 cells expressing CYP3A4; conditions: 24 h; for Quantification of metabolites generated from PCB28, 52, and 101: 20 µM parent PCB, supernatant
Description: as §1, §2, §3, §4

[1] = PCB concentrations in plasma of HELPcB participants (2010); format: in vivo, human; conditions: sample of 2010; for concentration at 2010 calendar year / concentration at 2010 calendar year of sampling: human, plasma, other: occupational exposure

CYP2E1, sequence (P05181 whole entry): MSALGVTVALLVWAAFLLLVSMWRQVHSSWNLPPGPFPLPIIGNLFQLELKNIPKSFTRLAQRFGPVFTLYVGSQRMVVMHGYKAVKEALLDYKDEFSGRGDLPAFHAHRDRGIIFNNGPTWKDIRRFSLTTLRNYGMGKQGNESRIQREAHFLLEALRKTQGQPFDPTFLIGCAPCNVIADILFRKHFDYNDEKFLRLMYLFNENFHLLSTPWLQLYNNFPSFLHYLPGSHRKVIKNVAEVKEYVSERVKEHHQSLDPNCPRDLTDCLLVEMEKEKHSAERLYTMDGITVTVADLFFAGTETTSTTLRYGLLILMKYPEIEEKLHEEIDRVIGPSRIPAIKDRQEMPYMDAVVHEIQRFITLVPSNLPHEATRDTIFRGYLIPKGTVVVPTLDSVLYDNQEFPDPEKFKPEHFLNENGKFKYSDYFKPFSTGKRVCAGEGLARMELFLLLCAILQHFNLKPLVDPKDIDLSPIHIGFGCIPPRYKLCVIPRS
CYP3A4, sequence (P08684 whole entry): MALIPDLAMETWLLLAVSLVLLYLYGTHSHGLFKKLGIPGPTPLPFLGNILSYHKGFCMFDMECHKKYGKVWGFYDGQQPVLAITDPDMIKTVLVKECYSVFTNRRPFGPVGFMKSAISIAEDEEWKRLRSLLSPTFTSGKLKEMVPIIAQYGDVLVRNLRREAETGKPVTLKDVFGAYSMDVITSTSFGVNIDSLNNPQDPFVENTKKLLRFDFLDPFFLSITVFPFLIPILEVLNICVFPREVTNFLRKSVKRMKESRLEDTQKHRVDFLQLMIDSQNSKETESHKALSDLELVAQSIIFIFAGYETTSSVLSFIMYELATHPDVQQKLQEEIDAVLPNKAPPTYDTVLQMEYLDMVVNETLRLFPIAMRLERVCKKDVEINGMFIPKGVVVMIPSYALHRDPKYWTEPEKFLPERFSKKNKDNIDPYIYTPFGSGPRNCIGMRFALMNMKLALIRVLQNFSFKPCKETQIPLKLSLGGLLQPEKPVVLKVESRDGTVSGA

Oc1cc(Cl)cc(-c2cc(Cl)c(Cl)cc2Cl)c1Cl [3´-OHCB101, 2,2′,4,5,5′-pentachloro-3′-biphenylol]
Quantification of metabolites generated from PCB28, 52, and 101 (CYP2E1; CYP2E1 Clone B4): <LOQ
Quantification of metabolites generated from PCB28, 52, and 101 (CYP2E1; CYP2E1 Clone B5): <LOQ
Quantification of metabolites generated from PCB28, 52, and 101 (CYP2E1; CYP2E1 Clone E6): <LOQ
Quantification of metabolites generated from PCB28, 52, and 101 (CYP2A6; CYP2A6 Clone B7): 39,4 nM
Quantification of metabolites generated from PCB28, 52, and 101 (CYP2A6; CYP2A6 Clone C4): 24,09 nM
Quantification of metabolites generated from PCB28, 52, and 101 (CYP2A6; CYP2A6 Clone C5): 4,2 nM
Metabolite concentration formed, range across cell clones (CYP2A6): 1.44–13.5 µg/L and 4.2–39.4 nM
Quantification of metabolites generated from PCB28, 52, and 101 (CYP3A4; CYP3A4 Clone D10): <LOQ
Quantification of metabolites generated from PCB28, 52, and 101 (CYP3A4; CYP3A4 Clone E6): <LOQ

Oc1cc(Cl)c(-c2cc(Cl)c(Cl)cc2Cl)cc1Cl [4´-OHCB101, 2,2′,4,5,5′-Pentachloro-4′-biphenylol]
Quantification of metabolites generated from PCB28, 52, and 101 (CYP2E1; CYP2E1 Clone B4): 3,84 nM
Quantification of metabolites generated from PCB28, 52, and 101 (CYP2E1; CYP2E1 Clone B5): 4,02 nM
Quantification of metabolites generated from PCB28, 52, and 101 (CYP2E1; CYP2E1 Clone E6): 5,08 nM
Quantification of metabolites generated from PCB28, 52, and 101 (CYP2A6; CYP2A6 Clone B7): 441,30 nM
Quantification of metabolites generated from PCB28, 52, and 101 (CYP2A6; CYP2A6 Clone C4): 272,55 nM
Quantification of metabolites generated from PCB28, 52, and 101 (CYP2A6; CYP2A6 Clone C5): 55,93 nM
Metabolite concentration formed, range across cell clones (CYP2A6): 19.15- 151.1 µg/L and 55.93–441.3 nM
Quantification of metabolites generated from PCB28, 52, and 101 (CYP3A4; CYP3A4 Clone D10): <LOQ
Quantification of metabolites generated from PCB28, 52, and 101 (CYP3A4; CYP3A4 Clone E6): <LOQ

O=c1ccc2ccccc2o1 [Coumarin, reference compound]
Conversion product (CYP2A6; HEK293CYP2A6, 10 µM substrate): 7-hydroxycoumarin

Cc1ncc2n1-c1ccc(Cl)cc1C(c1ccccc1F)=NC2 [Midazolam, reference compound]
Conversion product (CYP3A4; HEK293CYP3A4, 10 µM substrate): 1-hydroxy-midazolam

Clc1cc(Cl)c(-c2ccc(Cl)c(Cl)c2Cl)cc1Cl [PCB138]
Concentration in plasma ([1]; HELPcB participant AD): 0.984 ng/mL
Concentration in plasma ([1]; HELPcB participant AE): 0.773 ng/mL
Concentration in plasma ([1]; HELPcB participant eight): 0.358 ng/mL
Concentration in plasma ([1]; HELPcB participant five): 1.886 ng/mL
Concentration in plasma ([1]; HELPcB participant four): 0.610 ng/mL
Concentration in plasma ([1]; HELPcB participant one): 2.083 ng/mL
Concentration in plasma ([1]; HELPcB participant seven): 0.738 ng/mL
Concentration in plasma ([1]; HELPcB participant six): 14.883 ng/mL
Concentration in plasma ([1]; HELPcB participant three): 1.047 ng/mL
Concentration in plasma ([1]; HELPcB participant two): 0.718 ng/mL

Clc1cc(Cl)c(-c2cc(Cl)c(Cl)cc2Cl)cc1Cl [PCB153]
Concentration in plasma ([1]; HELPcB participant AD): 1.397 ng/mL
Concentration in plasma ([1]; HELPcB participant AE): 1.227 ng/mL
Concentration in plasma ([1]; HELPcB participant eight): 0.59 ng/mL
Concentration in plasma ([1]; HELPcB participant five): 1.765 ng/mL
Concentration in plasma ([1]; HELPcB participant four): 0.855 ng/mL
Concentration in plasma ([1]; HELPcB participant one): 1.907 ng/mL
Concentration in plasma ([1]; HELPcB participant seven): 1.081 ng/mL
Concentration in plasma ([1]; HELPcB participant six): 15.630 ng/mL
Concentration in plasma ([1]; HELPcB participant three): 1.254 ng/mL
Concentration in plasma ([1]; HELPcB participant two): 0.945 ng/mL

Clc1cc(Cl)c(-c2cc(Cl)c(Cl)c(Cl)c2Cl)cc1Cl [PCB180]
concentration at 2010 calendar year ([1]; HELPcB participant AD): 1.16 ng/mL
concentration at 2010 calendar year ([1]; HELPcB participant AE): 1.28 ng/mL
concentration at 2010 calendar year ([1]; HELPcB participant eight): 0.377 ng/mL
concentration at 2010 calendar year ([1]; HELPcB participant five): 0.951 ng/mL
concentration at 2010 calendar year ([1]; HELPcB participant four): 0.508 ng/mL
concentration at 2010 calendar year of sampling ([1]; HELPcB participant one): 0.998 ng/mL
concentration at 2010 calendar year ([1]; HELPcB participant seven): 0.934 ng/mL
concentration at 2010 calendar year ([1]; HELPcB participant six): 8.85 ng/mL
concentration at 2010 calendar year ([1]; HELPcB participant three): 0.95 ng/mL
concentration at 2010 calendar year of sampling ([1]; HELPcB participant two): 0.612 ng/mL
